Test system: HT-29 cells
Test: HT-29 necroptosis cell viability assay (TNF-α/SMAC mimetic/zVAD-FMK, CellTiter-Glo)
Assay type: cell-based
Settings: Homo sapiens, HT-29, HT-29 necroptosis cell viability, IC50 class symbols; read-out: Activity
In short: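 HT-29 cells (~5,000/well, overnight) in FBS-free McCoy's 5A with TNF-α 10 ng/ml, SMAC mimetic 6 μM and zVAD-FMK 10 μM plus 10-point 1:3 compound titration, 20 h at 37°C. ATP measured by CellTiter-Glo luminescence; IC50 as geometric mean of duplicates.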

Row | SMILES | IC50
1 | Cc1c(Oc2ccc(-n3ncn(Cc4c(F)cccc4F)c3=O)cc2)ccnc1NC12CC(C#N)(C1)C2 [Example 247, 3-((4-(4-(4-(2,6-difluorobenzyl)-5-oxo-4,5-dihydro-1H-1,2,4-triazol-1-yl)phenoxy)-3-methylpyridin-2-yl)amino)bicyclo[1.1.1]pentane-1-carbonitrile] | < 100 nM
2 | N#CC12CC(Nc3nccc(Oc4ccc(-n5ncn(Cc6c(F)cccc6F)c5=O)cc4)c3Cl)(C1)C2 [Example 248, 3-((3-chloro-4-(4-(4-(2,6-difluorobenzyl)-5-oxo-4,5-dihydro-1H-1,2,4-triazol-1-yl)phenoxy)pyridin-2-yl)amino)bicyclo[1.1.1]pentane-1-carbonitrile] | < 100 nM
3 | CC1(O)CN(c2cc(Oc3ncc(-n4ncn(Cc5c(F)cccc5F)c4=O)cc3F)ccn2)C1 [Example 249, 4-(2,6-difluorobenzyl)-2-(5-fluoro-6-((2-(3-hydroxy-3-methylazetidin-1-yl)pyridin-4-yl)oxy)pyridin-3-yl)-2,4-dihydro-3H-1,2,4-triazol-3-one] | 100 to 1000 nM
4 | C[C@H]1[C@@H](O)CN1c1cc(Oc2ncc(-n3ncn(Cc4c(F)cccc4F)c3=O)cc2F)ccn1 [Example 250, 4-(2,6-difluorobenzyl)-2-(5-fluoro-6-((2-((2S,3S)-3-hydroxy-2-methylazetidin-1-yl)pyridin-4-yl)oxy)pyridin-3-yl)-2,4-dihydro-3H-1,2,4-triazol-3-one] | < 100 nM
5 | Cc1cnc(N2CC(C)(C#N)C2)cc1Oc1ccc(-n2ncn(Cc3c(F)cccc3F)c2=O)cc1Cl [Example 251, 1-(4-(2-chloro-4-(4-(2,6-difluorobenzyl)-5-oxo-4,5-dihydro-1H-1,2,4-triazol-1-yl)phenoxy)-5-methylpyridin-2-yl)-3-methylazetidine-3-carbonitrile] | < 100 nM
6 | N#CC1(F)CN(c2cc(Oc3ccc(-n4ncn(Cc5c(F)cccc5F)c4=O)cc3)ccn2)C1 [Example 252, 1-(4-(4-(4-(2,6-difluorobenzyl)-5-oxo-4,5-dihydro-1H-1,2,4-triazol-1-yl)phenoxy)pyridin-2-yl)-3-fluoroazetidine-3-carbonitrile] | 100 to 1000 nM
7 | CC(C)OC1CN(c2cccc(Oc3ccc(-n4ncn(Cc5c(F)cccc5F)c4=O)cc3)n2)C1 [Example 253, 4-(2,6-difluorobenzyl)-2-(4-((6-(3-isopropoxyazetidin-1-yl)pyridin-2-yl)oxy)phenyl)-2,4-dihydro-3H-1,2,4-triazol-3-one] | < 100 nM
8 | CC1(C)CC(=O)N(c2cc(Oc3ccc(-n4ncn(Cc5c(F)cccc5F)c4=O)cc3)ccn2)C1 [Example 254, 4-(2,6-difluorobenzyl)-2-(4-((2-(4,4-dimethyl-2-oxopyrrolidin-1-yl)pyridin-4-yl)oxy)phenyl)-2,4-dihydro-3H-1,2,4-triazol-3-one] | 100 to 1000 nM
9 | N#CC1CCN(c2cc(Oc3ccc(-n4ncn(Cc5c(F)cccc5F)c4=O)cc3)ccn2)CC1 [Example 255, 1-(4-(4-(4-(2,6-difluorobenzyl)-5-oxo-4,5-dihydro-1H-1,2,4-triazol-1-yl)phenoxy)pyridin-2-yl)piperidine-4-carbonitrile] | 100 to 1000 nM
10 | CC1(C#N)CN(c2nccc(Oc3ccc(-n4ncn(Cc5c(F)cccc5F)c4=O)cc3Cl)c2Cl)C1 [Example 256, 1-(3-chloro-4-(2-chloro-4-(4-(2,6-difluorobenzyl)-5-oxo-4,5-dihydro-1H-1,2,4-triazol-1-yl)phenoxy)pyridin-2-yl)-3-methylazetidine-3-carbonitrile] | < 100 nM
11 | CC1(C#N)CN(c2cc(Oc3ccc(-n4ncn(Cc5c(F)cccc5F)c4=O)cc3F)c(Cl)cn2)C1 [Example 257, 1-(5-chloro-4-(4-(4-(2,6-difluorobenzyl)-5-oxo-4,5-dihydro-1H-1,2,4-triazol-1-yl)-2-fluorophenoxy)pyridin-2-yl)-3-methylazetidine-3-carbonitrile] | < 100 nM

Source: patent US20250179061A1 (SIRONAX LTD., priority 2022, published 2025)
